Data as given in ChEMBL document CHEMBL3797079, “Synergistic reduction of HIV-1 infectivity by 5-azacytidine and inhibitors of ribonucleotide reductase” (Bioorg Med Chem, 2016).
Active and inactive are the calls of the source.

Key:
U373-MAGI [1] = experiment: Effect on dRGU-TP level in human U373-MAGI cells at 50 uM preincubated for 2 hrs followed by 5-aza-dC addition measured after 4 hrs by LC-MS/MS analysis; type: functional, cell-based
[2] = system: Human immunodeficiency virus 1; experiment: Antiviral activity against VSV-G pseudotyped HIV-1 NL4-3 infected in human U373-MAGI cells assessed as reduction in U5-gag level at 50 uM measured at 12 to 72 hrs post infection by qPCR method; type: functional, organism-based
U373-MAGI [3] = experiment: Reduction in dTTP level in human U373-MAGI cells at 50 uM after 6 hrs by LC-MS/MS analysis; type: functional, cell-based
[4] = system: Human immunodeficiency virus 1; experiment: (§1) Potentiation of 5-Aza-C-induced antiviral activity against VSV-G pseudotyped HIV-1 NL4-3 infected in human U373-MAGI cells assessed as Gag mutation at 50 uM incubated for 4 hrs preinfection followed by 5-Aza-C addition for 2 hrs preinfection and subsequent viral infection measured at 72 hrs post infection by illumina sequencing method (reference value: 18.4%); type: functional
U373-MAGI [5] = experiment: Increase in 5-aza-dCTP/dCTP ratio in human U373-MAGI cells at 50 uM preincubated for 2 hrs followed by 5-aza-dC addition measured after 4 hrs by LC-MS/MS analysis relative to 5-aza-dC; type: functional, cell-based
U373-MAGI [6] = experiment: Increase in 5-aza-dCTP/dCTP ratio in human U373-MAGI cells at 200 uM preincubated for 2 hrs followed by 5-aza-C addition measured after 4 hrs by LC-MS/MS analysis relative to 5-aza-C; type: functional, cell-based
[7] = system: Human immunodeficiency virus 1; experiment: Potentiation of 5-Aza-dC-induced antiviral activity against VSV-G pseudotyped HIV-1 NL4-3 infected in human U373-MAGI cells assessed as reduction in gag level at 50 uM after 2 to 72 hrs by qPCR method; type: functional, organism-based
[8] = system: Human immunodeficiency virus 1; experiment: (§2) Potentiation of 5-Aza-C-induced antiviral activity against VSV-G pseudotyped HIV-1 NL4-3 infected in human U373-MAGI cells assessed as reduction in viral infectivity at 50 uM preincubated for 2 to 8 hrs followed by 5-Aza-C addition for 2 hrs and subsequent viral infection measured at 72 hrs post infection by flow cytometric analysis; type: functional, organism-based
[9] = system: Human immunodeficiency virus 1; experiment: Antiviral activity against VSV-G pseudotyped HIV-1 NL4-3 infected in human U373-MAGI cells assessed as reduction in gag level at 50 uM measured at 12 to 72 hrs post infection by qPCR method; type: functional, organism-based
U373-MAGI [10] = experiment: Reduction in dCTP level in human U373-MAGI cells at 50 uM preincubated for 2 hrs followed by 5-aza-dC addition measured after 4 hrs by LC-MS/MS analysis relative to 5-aza-dC; type: functional, cell-based
U373-MAGI [11] = experiment: Reduction in dTTP level in human U373-MAGI cells at 200 uM after 6 hrs by LC-MS/MS analysis; type: functional, cell-based
[12] = system: Human immunodeficiency virus 1; experiment: Antiviral activity against VSV-G pseudotyped HIV-1 NL4-3 infected in human U373-MAGI cells assessed as reduction in gag level at 50 uM measured at 6 hrs post infection by qPCR method; type: functional, organism-based
U373-MAGI [13] = experiment: Reduction in dCTP level in human U373-MAGI cells at 50 uM after 6 hrs by LC-MS/MS analysis; type: functional, cell-based
[14] = system: Human immunodeficiency virus 1; experiment: as §1, with “5-Aza-dC-induced” for “5-Aza-C-induced”; type: functional
U373-MAGI [15] = experiment: Reduction in dCTP level in human U373-MAGI cells at 200 uM after 6 hrs by LC-MS/MS analysis; type: functional, cell-based
[16] = system: Human immunodeficiency virus 1; experiment: Antiviral activity against VSV-G pseudotyped HIV-1 NL4-3 infected in human U373-MAGI cells assessed as increase in frequency of G to C transversion at 50 uM incubated for 4 hrs prior to infection measured at 72 hrs post infection by illumina sequencing method relative to control; type: functional
U373-MAGI [17] = experiment: Effect on 5-aza-dCTP level in human U373-MAGI cells at 200 uM preincubated for 2 hrs followed by 5-aza-dC addition measured after 4 hrs by LC-MS/MS analysis; type: functional, cell-based
U373-MAGI [18] = experiment: Reduction in dRGU-TP level in human U373-MAGI cells at 50 uM preincubated for 2 hrs followed by 5-aza-C addition measured after 4 hrs by LC-MS/MS analysis; type: functional, cell-based
[19] = system: Human immunodeficiency virus 1; experiment: as §1, with “5-Aza-dC-induced” for “5-Aza-C-induced”, “increase in total” for “Gag”, “mutation frequency” for “mutation”, “relative to control” for “(reference value: 18.4%)”; type: functional, organism-based
[20] = Reduction in dATP level in human U373-MAGI cells at 50 uM after 6 hrs by LC-MS/MS analysis; type: functional; parameters: scale not given: the % may be the effect or the level left
U373-MAGI [21] = experiment: Reduction in dCTP level in human U373-MAGI cells at 50 uM preincubated for 2 hrs followed by 5-aza-C addition measured after 4 hrs by LC-MS/MS analysis; type: functional, cell-based
[22] = system: Human immunodeficiency virus 1; experiment: Antiviral activity against VSV-G pseudotyped HIV-1 NL4-3 infected in human U373-MAGI cells assessed as increase in frequency of A to C transversion at 50 uM incubated for 4 hrs prior to infection measured at 72 hrs post infection by illumina sequencing method relative to control; type: functional
U373-MAGI [23] = experiment: Increase in 5-aza-dCTP/dCTP ratio in human U373-MAGI cells at 50 uM preincubated for 2 hrs followed by 5-aza-C addition measured after 4 hrs by LC-MS/MS analysis relative to 5-aza-C; type: functional, cell-based
[24] = system: Human immunodeficiency virus 1; experiment: as §2, with “25 to 100” for “50”, “2” for “2 to 8”; type: functional, organism-based
U373-MAGI [25] = experiment: Increase in 5-aza-dCTP/dCTP ratio in human U373-MAGI cells at 200 uM preincubated for 2 hrs followed by 5-aza-dC addition measured after 4 hrs by LC-MS/MS analysis relative to 5-aza-dC; type: functional, cell-based
[26] = system: Human immunodeficiency virus 1; experiment: Antiviral activity against VSV-G pseudotyped HIV-1 NL4-3 infected in human U373-MAGI cells assessed as increase in frequency of […] transversion at 50 uM incubated for 4 hrs prior to infection measured at 72 hrs post infection by illumina sequencing method relative to control; type: functional
U373-MAGI [27] = experiment: Reduction in dGTP level in human U373-MAGI cells at 50 uM after 6 hrs by LC-MS/MS analysis; type: functional, cell-based
[28] = system: Human immunodeficiency virus 1; experiment: Antiviral activity against VSV-G pseudotyped HIV-1 NL4-3 infected in human U373-MAGI cells assessed as reduction in viral infectivity at 50 uM incubated for 4 hrs prior to viral infection measured at 72 hrs post infection by flow cytometric analysis; type: functional, organism-based
[29] = system: Human immunodeficiency virus 1; experiment: Antiviral activity against VSV-G pseudotyped HIV-1 NL4-3 infected in human U373-MAGI cells assessed as Nef mutation at 50 uM incubated for 4 hrs prior to infection measured at 72 hrs post infection by illumina sequencing method (reference value: 22.6%); type: functional
[30] = system: Human immunodeficiency virus 1; experiment: Antiviral activity against VSV-G pseudotyped HIV-1 NL4-3 infected in human U373-MAGI cells assessed as increase in frequency of C to A transversion at 50 uM incubated for 4 hrs prior to infection measured at 72 hrs post infection by illumina sequencing method relative to control; type: functional
[31] = system: Human immunodeficiency virus 1; experiment: Antiviral activity against VSV-G pseudotyped HIV-1 NL4-3 infected in human U373-MAGI cells assessed as reduction in U5-gag level at 50 uM measured at 6 hrs post infection by qPCR method; type: functional, organism-based

Oc1ccc(/C=C/c2cc(O)cc(O)c2)cc1 [RESVERATROL]
1.8: fold change (FC) [22]
18.5%: Activity [29]
1.3: fold change (FC) [30]
inactive: Activity (U373-MAGI [1]) | Activity [2] | Activity (U373-MAGI [3]) | Activity (U373-MAGI [6]) | Activity [9] | Activity (U373-MAGI [13]) | Activity (U373-MAGI [17]) | Activity (U373-MAGI [18]) | Activity [19] | Activity (U373-MAGI [27])
2: fold change (FC) [16] | fold change (FC) [26]
30%: Activity [20]
active: Activity (U373-MAGI [5]) | Activity [7] | Activity [8] | Activity (U373-MAGI [10]) | Activity (U373-MAGI [11]) | Activity [12] | Activity (U373-MAGI [15]) | Activity (U373-MAGI [21]) | Activity (U373-MAGI [23]) | Activity [24] | Activity (U373-MAGI [25]) | Activity [28] | Activity [31]
15.7%: Activity [14]
15.5%: Activity [4]
